Like-named read-outs stand apart in the source and are kept apart here.
Columns and labels:
[1] = Acute intravenous toxicity in rat, second study; type: in vivo; conditions: single intravenous dose
Description: In the second IV administration study of MP470 free base, six groups of 6 rats were to be exposed to either vehicle alone or MP470 at 0.625, 1.25, 2.5, 5, or 10 mg/kg. Dosing was administered via a tail vein over approximately 30 minutes. Animals in each group were given a single intravenous dose of the test substance. Animals in the lowest dose group were dosed first, followed by at least a 10 minute period to observe any effects. If no effects were observed or if effects were observed but deemed acceptable the dosing went to the next highest dose using the same progression criteria. Progression was stopped when unacceptable, adverse effects (e.g., severe convulsions or death) occurred or when the highest dose was successfully administered without adverse effects. A control group (formulation vehicle: TV-13) was included for relevant comparison. […] Dosing occurred on Day 0 and termination on Day 4. On Day 4, the animals were sacrificed and subjected to complete, documented, gross necropsy.
Mortality (50%) occurred in the high dose group (10 mg/kg). […] Under the conditions of this study, a maximum tolerated acute dose in the rat for MP470 was determined to be 5 mg/kg. However, a ‘no observable adverse effect level’ could not be determined due to adverse observations apparently associated with vehicle administration.

A549 lung cancer cells = type: in vivo; conditions: for tumor growth rate: qd×5×3 wk (vehicle 43)
Description: MP470 and MP470 HCl were tested against different tumor types in athymic nude mice as summarized below (Table 8). Various formulations and routes were evaluated. HT-29 colorectal cancer cells and SB-CL2 melanoma cells were implanted subcutaneously, while A549 lung cancer cells, MiaPaCa-2 pancreatic cancer cells, TT medullary thyroid cancer cells, and OVCAR-3 ovarian cancer cells were implanted […] in the hind flank of mice. All animals were allowed to develop medium-sized (80-125 mg) tumors, before initiation of dosing. Tumor volume and mouse bodyweight were followed over the course of the study.
A549 Lung Cancer Model—In 40 nude mice implanted intradermally with A549 lung cancer cells, animals were dosed with vehicle orally, MP470 in 100% corn oil orally, or 5-FU in sterile saline IP. […] […] While MP470 reduced tumor growth rates, treatment of these cells with 5-FU reduced the overall tumor growth rate per day further to 19.5 mm3/d on Day 26.
To determine whether MP470.HCl in combination with carboplatin increased the anti-tumor activity in xenograft tumors growing in vivo, the agents were administered alone and in combination and tumor growth was monitored. MP470.HCl (50 mg/kg) was combined with carboplatin (30 mg/kg) alone or carboplatin with taxol (20 mg/kg).

[2] = tested on: Rad51 in cancer cell lines; assay: Rad51 Western blot after ionizing radiation; type: cell-based; conditions: cells pretreated with MP470
Excerpt: Similar to IR, the sensitivity of cancer cells to platinum-based drugs can be affected by the level of Rad51 protein.

[3] = tested on: γ-H2AX levels in OVCAR-3 (ovarian carcinoma) cells; assay: DNA damage by γ-H2AX levels; type: cell-based; conditions: single agent 10 μM; control 0.5% DMSO medium
Description: OVCAR-3 (ovarian carcinoma) cells were treated with MP470 (10 μM), MP470.HCl (10 μM), and/or topotecan (10 μM).

[4] = Single-dose pharmacokinetics in rat (Table 10); type: in vivo
Excerpt: MP470 free base has a relative bioavailability of […] as compared to the HCl salt.

[5] = Solubility of MP470 and its salts (Table 2); type: physicochemical
OVCAR-3 cells = assay: OVCAR-3 cell proliferation; type: cell-based; conditions: Homo sapiens
Description: The IC50 for MP470.HCl on OVCAR-3 cells proliferation was 0.9 μM (FIG. 4). It appears to have a cytostatic effect on cancer cells in addition to being cytotoxic.

[6] = 50 mM PBS buffer, pH 7, aqueous buffer, 50 mM PBS buffer, pH 7, read-out: Solubility (50 mM PBS buffer, pH 7, Exp. 15)
[7] = water, read-out: Solubility in water
[8] = Rat, 100 mg/kg PO, Dry Blend, hydrochloride, 100 mg/kg

Structure (SMILES): S=C(NCc1ccc2c(c1)OCO2)N1CCN(c2ncnc3c2oc2ccccc23)CC1 [MP470, 4-[1]benzofuro[3,2-d]pyrimidin-4-yl-N-(1,3-benzodioxol-5-ylmethyl)piperazine-1-carbothioamide]
- maximum tolerated acute dose [1]: 5 mg/kg
- Outcome: tumor growth (A549 lung cancer cells; A549 lung, MP470 PO 50, 100, 200 mg/kg, (qd × 5) × 2 w, corn oil): no apparent dose relationship
- tumor growth rate (A549 lung cancer cells; Day 26, 50 mg/kg oral in corn oil): 28.3 mm3/d
- tumor growth rate (A549 lung cancer cells; Day 26, 100 mg/kg oral in corn oil): 34.9 mm3/d
- tumor growth rate (A549 lung cancer cells; Day 26, 150 mg/kg oral in corn oil): 28.1 mm3/d
- Rad51 protein level after ionizing radiation [2]: Rad51 remained near control levels even after exposure to IR
- Increase in DNA damage (γ-H2AX) over control [3]: did not cause DNA damage
- Cmax ([4]; Rat, 100 mg/kg PO, Dry Blend): 710 ng/mL
- Tmax ([4]; Rat, 100 mg/kg PO, Dry Blend): 11.3 h
- AUC0→last ([4]; Rat, 100 mg/kg PO, Dry Blend, 100 mg/kg): 7910 ng·h/mL
- AUC0→last ([4]; Rat, 100 mg/kg PO, Dry Blend, listed as MP470 (free base), 100 mg/kg): 7900 ng·h/mL
- bioavailability ([4]; in vivo, Rat, 100 mg/kg oral, dry powder blend, read-out: relative bioavailability as compared to the HCl salt): 8%
- Solubility [5, 6]: 1.22 µg/mL
- Solubility [5, 7]: 4.94 µg/mL

Structure (SMILES): Cl.S=C(NCc1ccc2c(c1)OCO2)N1CCN(c2ncnc3c2oc2ccccc23)CC1 [MP470.HCl, 4-[1]benzofuro[3,2-d]pyrimidin-4-yl-N-(1,3-benzodioxol-5-ylmethyl)piperazine-1-carbothioamide hydrochloride]
- Outcome: tumor growth (A549 lung cancer cells; A459 lung cancer, MP470.HCl PO 50 mg/kg, qd × 21, corn oil, hydrochloride, 50 mg/kg): Dose dependency
- Increase in DNA damage (γ-H2AX) over control [3]: did not cause DNA damage
- IC50 (OVCAR-3 cells): 900 nM
- AUC0→last ([4]; Rat, 3 mg/kg IV bolus, TV-10): 18810 ng·h/mL
- Cmax ([4]; Rat, 3 mg/kg IV bolus, TV-10): 8530 ng/mL
- Tmax ([4]; Rat, 3 mg/kg IV bolus, TV-10): 0.02 h
- AUC0→last ([4]; Rat, 100 mg/kg PO, Corn oil): 73350 ng·h/mL
- Cmax ([4]; Rat, 100 mg/kg PO, Corn oil): 5270 ng/mL
- Tmax ([4]; Rat, 100 mg/kg PO, Corn oil): 4.0 h
- Cmax ([4]; Rat, 100 mg/kg PO, Dry Blend): 7190 ng/mL
- Tmax ([4]; Rat, 100 mg/kg PO, Dry Blend): 9.5 h
- AUC0→last [4, 8]: 94310 ng·h/mL
- AUC0→last (μg · h/mL) [4, 8]: about 94 μg · h/mL
- Tmax ([4]; Rat, 100 mg/kg orally, range over vehicles): 4.0 to 9.5 h
- Cmax ([4]; in vivo, po, Rat, 100 mg/kg orally, range over vehicles, read-out: Cmax): 4600 to 7200 ng/mL
- t½β ([4]; rat, in vivo, iv, 3 mg/kg): 0.36 h
- Solubility [5, 6]: 3.28 µg/mL
- Solubility [5, 7]: 31.1 µg/mL
